Laboratory results taken from the Deep4Chem optical property database.
Blank lines part the entries; values can stand above or below the compound they belong to.

Experiment: solvent given as SMILES

emission maximum (in C1CCCCC1): 437 nm | emission maximum (in C1CCOC1): 452 nm | emission maximum (in CC#N): 483 nm | emission maximum (in CO): 492 nm | emission maximum (in CS(C)=O): 490 nm | emission maximum (in ClCCl): 482 nm | emission maximum (in O): 520 nm
Structure (SMILES): CC1=N/C(=C\c2ccc(N(C)C)cc2)C(=O)N1C

Structure (SMILES): CC(C)c1cc(C(C)C)c(B2c3ccccc3Oc3cc(N4c5ccccc5C5(c6ccccc6-c6ccccc65)c5ccccc54)ccc32)c(C(C)C)c1
emission maximum (in Cc1ccccc1): 456 nm

emission maximum (in ClCCl): 554 nm | emission maximum (in c1ccccc1): 504 nm
Structure (SMILES): CCCCN(CCCC)c1ccc2c#cc3cc4c#cc5ccc(C(F)(F)F)cc5c#cc#cc5cc(C(F)(F)F)ccc5c#cc4cc3c#cc3ccc(N(CCCC)CCCC)cc3c#cc#cc2c1

emission maximum (in ClCCl): 424 nm
Structure (SMILES): CN(C)c1ccc(N2c3sc4ccccc4c3Sc3sc4ccccc4c32)cc1

emission maximum (in CO): 430 nm
Structure (SMILES): CCOC(=O)CCCCCn1c2ccccc2c(=O)c2cc(I)ccc21

emission maximum (in ClCCl): 422 nm
Structure (SMILES): CC(C)(C)c1ccc2c(c1)c1cc(C(C)(C)C)ccc1n2-c1ccc(C#Cc2ccc3c4ccc(C#Cc5ccc(C=O)cc5)cc4n(-c4ccc(C(F)(F)F)cc4)c3c2)cc1

emission maximum (in ClCCl): 557 nm
Structure (SMILES): CC[C@H](C)COc1ccc(C2=C3C(C)=C(I)C(C)=[N+]3[B-](F)(F)n3c(C)c(I)c(C)c32)cc1

Structure (SMILES): COc1ccc(C2=C3C(C)=CC(C=Cc4ccc(C(=O)OC5C[C@H]6CCC5(C)C6(C)C)cc4)=[N+]3[B-](F)(F)n3c(C)cc(C)c32)cc1 (some centres not stated)
emission maximum (in Cc1ccccc1): 627 nm

emission maximum (in ClCCl): 616 nm
Structure (SMILES): CN(C)c1ccc(C2=CC3=C(c4ccc(C=O)cc4)[C@H]4c5ccccc5[C@]3(S2)c2ccccc24)cc1

emission maximum (in CCO): 606 nm | emission maximum (in ClCCl): 603 nm
Structure (SMILES): c1csc(-c2c3ccc(=[N+]4CCCCC4)cc-3oc3cc(N4CCCCC4)ccc23)c1

emission maximum (in C1COCCO1): 397 nm | emission maximum (in CC#N): 409 nm | emission maximum (in CO): 429 nm | emission maximum (in ClCCl): 407 nm
Structure (SMILES): COC(=O)CNC(=O)c1nc2c(N(C)C)nc(N(C)C)nc2n1Cc1ccccc1

emission maximum (in CC#N): 478 nm | emission maximum (in O): 521 nm
Structure (SMILES): Nc1nc2ccccc2[n+]([O-])n1

emission maximum (in ClCCl): 430 nm
Structure (SMILES): N#Cc1ccc(-n2c(-c3ccc(-c4ccc(-c5nc6c7ccccc7c7ccccc7c6n5-c5ccc(C#N)c6ccccc56)cc4)cc3)nc3c4ccccc4c4ccccc4c32)c2ccccc12

emission maximum (in CC#N): 635 nm | emission maximum (in CCO): 632 nm | emission maximum (in ClCCl): 622 nm | emission maximum (in O): 650 nm
Structure (SMILES): C=CCNc1ccc2ccc3oc4cc(=[N+]5CCCC5)ccc-4nc3c2c1

emission maximum (in ClCCl): 562 nm
Structure (SMILES): CN(C)c1ccc(C#Cc2cc(C#Cc3ccc(N(C)C)cc3)c3ccc4c(C#Cc5ccc(N(C)C)cc5)cc(C#Cc5ccc(N(C)C)cc5)c5ccc2c3c54)cc1

emission maximum (in CN(C)C=O): 686 nm
Structure (SMILES): CCOC(=O)C(Cc1ccc(O[Si]2(Oc3ccc(CC(NC(C)=O)C(=O)OCC)cc3)n3c4c5ccccc5c3/N=C3N=C(/N=c5/c6ccccc6/c(n52)=N/C2=NC(=N\4)/c4ccccc42)c2ccccc2\3)cc1)NC(C)=O (configuration not stated)

emission maximum (in CC#N): 413 nm
Structure (SMILES): CCOC(=O)c1c2c3c(ccc(C)c3c3cc4ccccc4cc13)N(C)C2=O

emission maximum (in C1COCCO1): 376 nm | emission maximum (in CC#N): 382 nm | emission maximum (in CO): 405 nm | emission maximum (in ClCCl): 371 nm
Structure (SMILES): COC(=O)c1nc2c(OCc3ccccc3)nc(N)nc2n1Cc1ccccc1

Structure (SMILES): CCCCCCC(CCCCCC)n1c(=O)c2c3ccc4cccc5c6cccc7ccc(c2c1=O)c(c76)c3c45
emission maximum (in C1CCCCC1): 471 nm | emission maximum (in CC#N): 527 nm | emission maximum (in CC(C)=O): 514 nm | emission maximum (in CCCCCC): 469 nm | emission maximum (in CCO): 550 nm | emission maximum (in CCOCC): 495 nm | emission maximum (in CS(C)=O): 534 nm | emission maximum (in Cc1ccccc1): 491 nm | emission maximum (in ClC(Cl)(Cl)Cl): 482 nm | emission maximum (in ClC(Cl)Cl): 522 nm

emission maximum (in ClCCl): 429 nm
Structure (SMILES): c1ccc(-c2cc3cc4ccccc4cc3p2-c2ccccc2)cc1 (configuration not stated)

Structure (SMILES): N#CC1=c2c3cccc4c(Br)ccc(c43)n2[B-](F)(F)[n+]2ccccc21
emission maximum (in C1CCOC1): 545 nm | emission maximum (in CC#N): 541 nm | emission maximum (in CCCCCC): 545 nm | emission maximum (in Cc1ccccc1): 550 nm | emission maximum (in ClCCl): 546 nm

emission maximum (in CO): 813 nm
Structure (SMILES): Cc1ccc(CN2/C(=C/C=C3\CCCC(/C=C/C4=[N+](Cc5ccc(C)cc5)c5ccccc5C4(C)C)=C3Cl)C(C)(C)c3ccccc32)cc1

emission maximum (in CCO): 596 nm | emission maximum (in O): 603 nm
Structure (SMILES): O=C([O-])c1ccc(C(=O)[O-])c(C2=c3cc4c5c(c3Oc3c2cc2c6c3CCCN6CCC2)CCC[N+]=5CCC4)c1

emission maximum (in ClCCl): 428 nm
Structure (SMILES): O=P1(c2ccccc2)C(c2ccccc2)=Cc2cc3ccccc3cc21 (configuration not stated)

emission maximum (in ClCCl): 365 nm
Structure (SMILES): CN(C)c1ccc(-c2cc(-c3ccccc3)nn2C)cc1

emission maximum (in ClCCl): 525 nm
Structure (SMILES): COc1ccc(N(c2ccc(OC)cc2)c2cc(N(c3ccc(OC)cc3)c3ccc(OC)cc3)c3ccc4cc(C(C)(C)C)cc5ccc2c3c54)cc1

emission maximum (in CC#N): 582 nm | emission maximum (in CCCCCC): 589 nm | emission maximum (in CCOC(C)=O): 586 nm | emission maximum (in CO): 583 nm | emission maximum (in ClCCl): 586 nm
Structure (SMILES): CCc1c(C)c2n(c1C)[B-](F)(F)[N+]1=C(NCc3ccc(OC)cc3)C(SC#N)=CC1=C2C

Structure (SMILES): CC(C)(C)c1ccc2c(c1)c1cc(C(C)(C)C)ccc1n2-c1cccc(-c2nc(-c3cccc(-n4c5ccc(C(C)(C)C)cc5c5cc(C(C)(C)C)ccc54)c3)nc(-c3cccc(P(=O)(c4ccccc4)c4ccccc4)c3)n2)c1
emission maximum (in C1CCOC1): 514.41 nm | emission maximum (in CC#N): 572.13 nm | emission maximum (in CC(C)=O): 552.3 nm | emission maximum (in CN(C)C=O): 532.99 nm | emission maximum (in Cc1ccccc1): 481.21 nm | emission maximum (in ClC(Cl)Cl): 511.48 nm | emission maximum (in ClCCl): 532.99 nm | emission maximum (in O=P(c1ccccc1)(c1ccccc1)c1ccccc1Oc1ccccc1P(=O)(c1ccccc1)c1ccccc1): 484 nm

Structure (SMILES): CC(C)(C)c1ccc2c(c1)c1cc(C(C)(C)C)cc3c1n2-c1cc(-c2cccc(F)c2)cc2c1B3c1cc(C(C)(C)C)cc3c4cc(C(C)(C)C)ccc4n-2c13
emission maximum (in Cc1ccccc1): 493.65 nm

Structure (SMILES): CCN(CC)c1ccc2cc(/C=C/C3=CC(/C=C/c4cc5ccc(N(CC)CC)cc5oc4=O)=[O+][B-](F)(F)O3)c(=O)oc2c1
emission maximum (in CC#N): 725 nm | emission maximum (in CC(C)=O): 710 nm | emission maximum (in CCOC(C)=O): 659 nm | emission maximum (in CN(C)C=O): 729 nm | emission maximum (in CS(C)=O): 741 nm | emission maximum (in Cc1ccccc1): 626 nm | emission maximum (in ClC(Cl)Cl): 669 nm | emission maximum (in ClCCl): 705 nm

emission maximum (in C1CCCCC1): 400 nm | emission maximum (in C1CCOC1): 410 nm | emission maximum (in C1COCCO1): 408 nm | emission maximum (in CC#N): 415 nm | emission maximum (in CC(C)(C)O): 412 nm | emission maximum (in CC(C)O): 416 nm | emission maximum (in CCCCCC): 402 nm | emission maximum (in CCCCO): 417 nm | emission maximum (in CCO): 417 nm | emission maximum (in CCOC(C)=O): 409 nm | emission maximum (in CN(C)C=O): 414 nm | emission maximum (in CO): 422 nm | emission maximum (in CS(C)=O): 417 nm | emission maximum (in ClC(Cl)Cl): 415 nm | emission maximum (in ClCCl): 415 nm | emission maximum (in O): 441 nm | emission maximum (in OCCO): 425 nm
Structure (SMILES): Cc1ccc(/C=N/c2cc(C(C)C)c(O)cc2C)cc1

emission maximum (in CS(C)=O): 424 nm | emission maximum (in O): 433 nm
Structure (SMILES): Cn1c2ccc(S(=O)(=O)O)cc2c(=O)c2cc(S(=O)(=O)O)ccc21

emission maximum (in CO): 776 nm | emission maximum (in O): 768 nm
Structure (SMILES): CC1(C)C2=[N+](CCCCCC(=O)NCCCNC(=O)CCCCCN3/C(=C/C=C/C=C/C=C/2)C(C)(C)c2cc(S(=O)(=O)[O-])ccc23)c2ccc(S(=O)(=O)[O-])cc21

emission maximum (in CCO): 582 nm | emission maximum (in ClCCl): 575 nm
Structure (SMILES): Cc1ccccc1-c1c2ccc(=[N+]3CCOCC3)cc-2oc2cc(N3CCOCC3)ccc12

emission maximum (in ClC(Cl)Cl): 431 nm
Structure (SMILES): Cc1ccc2nc3c4c(c5ccccc5c3nc2c1)OC(=O)CC4c1ccc(F)cc1 (configuration not stated)

Structure (SMILES): Cc1ccc(C(=O)NN2C3=C(CC4=C2CCCC4=O)C(=O)CCC3)cc1
emission maximum (in C1CCOC1): 435 nm | emission maximum (in CC#N): 343 nm | emission maximum (in CC(C)=O): 368 nm | emission maximum (in CCCCCO): 445 nm | emission maximum (in CO): 447 nm | emission maximum (in ClC(Cl)Cl): 438 nm | emission maximum (in ClCCl): 435 nm

emission maximum (in CS(C)=O): 508 nm
Structure (SMILES): c1csc(-c2nc3ccccc3c3cc4ccccn4c23)c1

emission maximum (in ClC(Cl)Cl): 697 nm
Structure (SMILES): CCCCCCCCCCCCOc1cc2c3c(ccc4c5c(N6CCOCC6)cc6c7c(ccc(c1c34)c75)C(=O)N(C1CCCCC1)C6=O)C(=O)N(C1CCCCC1)C2=O

Structure (SMILES): c1ccc([B-]2(c3ccccc3)Oc3ccc4ccccc4c3-c3c4ccccc4cc[n+]32)cc1
emission maximum (in Cc1ccccc1): 522 nm

emission maximum (in C1CCCCC1): 570 nm | emission maximum (in CC#N): 628 nm
Structure (SMILES): COc1ccc2c(c1)C(=O)c1cc(OC)cc(OC)c1-2

emission maximum (in C1CCCCC1): 472 nm | emission maximum (in C1CCOC1): 519 nm | emission maximum (in CC#N): 536 nm | emission maximum (in CO): 522 nm | emission maximum (in CS(C)=O): 552 nm | emission maximum (in ClCCl): 535 nm | emission maximum (in O): 426 nm
Structure (SMILES): CC1=N/C(=C\c2ccccc2N(C)C)C(=O)N1C

emission maximum (in CC#N): 421 nm | emission maximum (in CCCCCC): 336 nm
Structure (SMILES): COc1ccc(-n2c(C)ccc2C)cc1

emission maximum (in CC#N): 524 nm
Structure (SMILES): c1cc2oc3cccc4oc5cccc6oc(c1)c2[c+](c34)c65

emission maximum (in CC#N): 311 nm
Structure (SMILES): O=c1cc[nH]c(=O)[nH]1

Structure (SMILES): Cc1ccc2ccccc2c1
emission maximum (in C1CCCCC1): 338.75 nm

emission maximum (in ClC(Cl)Cl): 517.6 nm
Structure (SMILES): CO[B-]1(OC)n2c(C)cc(C)c2C(c2ccc(I)cc2)=C2C(C)=CC(C)=[N+]21

emission maximum (in ClC(Cl)Cl): 670 nm
Structure (SMILES): Cc1cc(C)c(C2=C3C=CC=[N+]3[B-]3(c4ccc5ccc6cccc7ccc4c5c67)Oc4cc(O)cc5c6ccc(C)cc6c6cc2n3c6c45)c(C)c1 (configuration not stated)

emission maximum (in CO): 662 nm | emission maximum (in ClC(Cl)Cl): 677 nm
Structure (SMILES): CC[n+]1c(C=C2C(=O)C(C=C3N(C)c4ccc(Cl)cc4C3(C)C)=C2[O-])[se]c2ccccc21

Structure (SMILES): O=P(c1ccccc1)(c1ccccc1)n1c2ccccc2c2cc(-n3c4ccccc4c4cc(-n5c6ccccc6c6cc(-n7c8ccccc8c8ccccc87)ccc65)ccc43)ccc21
emission maximum (in C1CCOC1): 378 nm | emission maximum (in CC(C)=O): 382 nm | emission maximum (in Cc1ccccc1): 376 nm | emission maximum (in ClCCl): 383 nm

Structure (SMILES): CCC1=C(C)C2=C(c3c4ccccc4c(-c4ccccc4)c4ccccc34)c3c(C)c(CC)c(C)n3[B-](F)(F)[N+]2=C1C
emission maximum (in CC#N): 536 nm | emission maximum (in CCCCCC): 539 nm | emission maximum (in CCO): 538 nm | emission maximum (in CN(C)C=O): 539 nm | emission maximum (in Cc1ccccc1): 544 nm | emission maximum (in ClCCl): 543 nm
